Assay results: publication PMC12598832, “Synthesis and Anticancer Potential of New Benzimidazole Theranostic” (ChemistryOpen, 2025)
Several values for one entry are separate records, joined by “and”; a condition that tells them apart may be missing. Identical values can stand only once. Counter-ions that a name gives are not always drawn. Like-named read-outs stand apart in the source and are kept apart here.

What was measured:
[1] = tested on: HCT116 (colorectal carcinoma) cell line; test: MTT cell proliferation assay, HCT116; assay type: cell-based; conditions: for IC50: MTT, 72 h, read-out: HCT116 IC50 [μM] ± SEM; for HCT116 Selectivity Index (SI): versus HEK293
[2] = tested on: H103 (oral squamous cell carcinoma, OSCC) cell line; test: MTT cell proliferation assay, H103; assay type: cell-based; conditions: for H103 Selectivity Index (SI): versus HEK293; for IC50: MTT, 72 h, read-out: H103 IC50 [μM] ± SEM
Text: (§1) The H103 and H314 OSCC cell lines were obtained from the European Collection of Cell Cultures (ECACC). The HCT116 and HEK293 cell lines were obtained from the American Type Culture Collection (Rockville, MD).
(§2) All cell lines were maintained in high‐glucose Dulbecco's Modified Eagle Media (DMEM) (Sigma‐Aldrich, Buchs, Switzerland). The culture media was supplemented with 10% fetal bovine serum (FBS) (TICO, Amsterdam, Netherlands) and 1% penicillin‐streptomycin. Prior to the cell‐based assay, cell lines were incubated at 37 °C in a 5% CO2 humidified atmosphere
(§3) Cells were seeded in 96‐well plates at a density of 5 × 10^3 per well. After 24 h of seeding, the cells were treated with 50 μM of the compounds of interest (final concentration 0.25% DMSO) and allowed to adhere for 72 h at 37 °C in a 5% CO2 humidified atmosphere. The 3‐(4,5‐dimethylthiazol‐2‐yl)‐2,5‐diphenyltetrazolium bromide (MTT) assay was conducted to examine the cell cytotoxicity profiles of the synthesized compounds. Briefly, the treatment media was discarded, and 0.5 mg mL^−1 of MTT was added to each well. The plates were incubated for another 4 h at 37 °C in a 5% CO2 humidified atmosphere. Following the incubation, the medium‐MTT solution was removed, and 100 μL of DMSO was added to dissolve the formazan crystals. The absorbance was measured at 570 nm, with the reference wavelength at 620 nm, using the Tecan Infinite 200 Pro. The experiment was carried out in triplicate.

H314 (OSCC) cell line = test: MTT cell proliferation assay, H314; assay type: cell-based; conditions: for IC50: MTT, read-out: H314 IC50 [μM] ± SEM; for IC50 / cytotoxic effect in preliminary screening, H314: 72 h; for H314 Selectivity Index (SI): versus HEK293; for cytotoxic effect in preliminary screening, H314: 50 μM, versus control 0.25% DMSO, ANOVA/Tukey
Text: as §1, §2
as §3, with “After 24 h of seeding, the cells were treated with 50 μM of the compounds of interest (final concentration 0.25% DMSO) and allowed to adhere for 72 h at 37 °C in a 5% CO2 humidified atmosphere.” left out

[3] = tested on: H103 (oral squamous cell carcinoma, OSCC) cell line; design: method as in PMID 32904142; conditions: previous study; cited from earlier work
HEK293 cells = test: MTT cell proliferation assay, HEK293 (noncancerous); assay type: cell-based, human; conditions: read-out: HEK293 IC50 [μM] ± SEM
Text: as §1, §2, §3

H103 cell line = tested on: H103 cell line; design: method as in ref 28 Khoo et al.; conditions: 24 h treatment; ref 28 Khoo et al.; cited from earlier work
H314 cell line = tested on: H314 cell line; design: method as in ref 28 Khoo et al.; conditions: 24 h treatment; ref 28 Khoo et al.; cited from earlier work
SIRT2 human recombinant = target: T1, SIRT2 human recombinant (Homo sapiens, UniProt Q8IXJ6); test: SIRT2 Direct Fluorescent Screening Assay Kit (Cayman); assay type: biochemical; conditions: for IC50: five concentrations 1-50 μM
T1 construct: purchased Cayman Chemicals, Ann Arbor 700,280
T1 sequence (Q8IXJ6 1-389): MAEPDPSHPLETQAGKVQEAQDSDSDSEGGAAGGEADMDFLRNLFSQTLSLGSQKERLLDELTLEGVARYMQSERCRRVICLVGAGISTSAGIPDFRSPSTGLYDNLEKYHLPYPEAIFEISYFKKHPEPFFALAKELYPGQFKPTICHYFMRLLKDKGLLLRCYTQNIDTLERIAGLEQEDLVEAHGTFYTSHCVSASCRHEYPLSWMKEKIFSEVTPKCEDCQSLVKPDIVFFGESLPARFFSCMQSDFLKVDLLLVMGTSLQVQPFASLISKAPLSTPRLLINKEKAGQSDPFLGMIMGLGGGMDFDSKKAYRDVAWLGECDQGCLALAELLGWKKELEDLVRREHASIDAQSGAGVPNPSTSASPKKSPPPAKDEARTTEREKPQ
Experimental: The SIRT2 inhibitory activity of the compounds was evaluated using the SIRT2 Direct Fluorescent Screening Assay Kit (Cayman Chemicals, Ann Arbor, C/N: 700,280) according to the manufacturer's instructions. The SIRT2 peptide substrate comprised amino acids 317–320 of human p53 conjugated to […] (Gln‐Pro‐Lys‐Lys(ε‐acetyl)‐AMC). […] Subsequently, 50 μl of developer solution (6 μg μl^−1 SIRT2 developer, 2 mM nicotinamide) was added. The mixture was incubated for a further 30 min at room temperature. […] The fluorescence was measured with excitation and emission wavelengths of 355 and 460 nm, respectively, using the Tecan Infinite 200 Pro. The percentage inhibition was determined as the ratio of […] under each experimental condition to that of the control.

[4] = Fluorescence properties (molar extinction coefficient, quantum yield, Stokes shift); assay type: physicochemical
Experimental: A series of dilutions of V7 (dissolved in DMSO) was prepared. The absorbance of the solutions at 326 nm was recorded on the UviLine 9400 spectrophotometer using a quartz cuvette (10 × 10 mm). A calibration curve of absorbance against concentration was generated. The molar extinction coefficient was calculated from the gradient of the line of best fit, in accordance with Beer–Lambert's law.
A series of dilutions of V7 (dissolved in DMSO) was prepared. The fluorescence emission peak at each concentration was determined using the Tecan Infinite 200 Pro microplate reader (λex = 326 nm and λem = 492 nm). The […] peak was plotted against the fluorescence emission peak and compared to that of a quinine sulfate standard, which has a known quantum yield.
The quantum yield of V7 was subsequently calculated using the following equation Φ=ΦR(Grad/GradR)(n^2/nr2)
The quinine sulfate reference has a quantum yield of 54.6% when dissolved in 0.5 M H2SO4.^[ [26] ^] The refractive index of 0.5 M H2SO4 is 1.346, while the refractive index of DMSO is 1.479.^[ [27] ^]

[5] = design: method as in ref 26 = [26]; 26 W. H. Melhuish , J. Phys. Chem. 1961 , 65 , 229 .; conditions: in 0.5 M H2SO4; cited from earlier work
[6] = compound 50 μM, preliminary screening, read-out: Percentage SIRT2 inhibition (%)
[7] = compound 50 μM, preliminary screening
[8] = dose-response, 50 μM, read-out: % Inhibition of SIRT2

SMILES | IC50 ([1]; Homo sapiens, HCT-116) [µM] | IC50 (H314 (OSCC) cell line) [µM] | inhibition at 50 µM (SIRT2 human recombinant; [6]) [%] | Percentage SIRT2 inhibition (%) (SIRT2 human recombinant; [7]) | HCT116 Selectivity Index (SI) [1] | H103 Selectivity Index (SI) [2] | IC50 (HEK293 cells; Homo sapiens, HEK293, 72 h) [µM] | H314 Selectivity Index (SI) (H314 (OSCC) cell line) | also measured
CCOC(=O)c1ccc2[nH]c(-c3ccc4c(c3)OCO4)nc2c1 [BZD9Q1, reference compound] | 11.5 ± 2.3 | > 100 | – | – | 1.60 | 3.15 | 18.4 ± 2.95 | – | IC50 [3]: 5.83 µM
N.N.[Cl][Pt][Cl] [Cisplatin, reference compound] | – | 15.1 ± 1.05 | – | – | 0.43 | 1.91 | – | 0.23 | IC50 (H103 cell line): 15 µM; IC50 [1]: 8.24 ± 0.86 µM; IC50 [2]: 1.85 ± 0.42 µM; sensitivity in H103 relative to H314 ([2]; from IC50 values of Table 2): 8 fold; IC50 (H314 cell line): 200 µM; IC50 (HEK293 cells; 72 h): 3.54 ± 0.18 µM
CCOC(=O)c1ccc2[nH]c(-c3ccc(O)cc3O)nc2c1 [Compound V2] | – | – | > 95 | complete inhibition of enzymatic activity | – | – | – | – | inhibition at 1 µM (SIRT2 human recombinant; dose-response): 19.4 ± 2.4%; inhibition at 3 µM (SIRT2 human recombinant; dose-response): 29.5 ± 6.6%; inhibition at 10 µM (SIRT2 human recombinant; dose-response): 44.5 ± 0.2%; inhibition at 25 µM (SIRT2 human recombinant; dose-response): 59.8 ± 0.1%; inhibition at 50 µM (SIRT2 human recombinant; [8]): 77 ± 0.1%; IC50 (SIRT2 human recombinant): 10.8 µM
CCOC(=O)c1ccc2[nH]c(-c3ccccc3O)nc2c1 [Compound V7] | 13.3 ± 2.52 | 16.7 ± 1.13 | > 95 | complete inhibition of enzymatic activity | 3.34 | 3.81 | 44.4 ± 3.03 | 2.66 | IC50 ([2]; Homo sapiens, H103): 11.6 ± 1.04 µM; cytotoxic effect in preliminary screening, H314 (H314 (OSCC) cell line): highly significant effects; molar extinction coefficient (molar absorptivity ε) ([4]; in DMSO, absorbance at 326 nm): 34,477 M^−1 cm^−1 and 34 477 M^−1 cm^−1; quantum yield Φ ([4]; in DMSO, λex 326 nm, λem 492 nm, versus quinine sulfate): 26%; Stokes shift Δλ ([4]; λex 326 nm, λem 492 nm): 166 nm; inhibition at 1 µM (SIRT2 human recombinant; dose-response): 0.2 ± 5.8%; inhibition at 3 µM (SIRT2 human recombinant; dose-response): 32.8 ± 2.8%; inhibition at 10 µM (SIRT2 human recombinant; dose-response): 66.1 ± 7.1%; inhibition at 25 µM (SIRT2 human recombinant; dose-response): 81.3 ± 3.2%; inhibition at 50 µM (SIRT2 human recombinant; [8]): 100 ± 3%; IC50 (SIRT2 human recombinant): 6.4 µM
C=C[C@H]1C[N@@]2CC[C@H]1C[C@H]2[C@H](O)c1ccnc2ccc(OC)cc12 [quinine sulfate] | – | – | – | – | – | – | – | – | quantum yield of reference [5]: 54.6%

More lines, main results first:

IC50 ([1]; Homo sapiens, HCT-116) [µM] | IC50 (H314 (OSCC) cell line) [µM] | inhibition at 50 µM (SIRT2 human recombinant; [6]) [%] | Percentage SIRT2 inhibition (%) (SIRT2 human recombinant; [7]) | SMILES | HCT116 Selectivity Index (SI) [1] | H103 Selectivity Index (SI) [2] | IC50 (HEK293 cells; Homo sapiens, HEK293, 72 h) [µM] | H314 Selectivity Index (SI) (H314 (OSCC) cell line) | also measured
– | – | 25.4 ± 11.8 | – | CCOC(=O)c1ccc2[nH]c(-c3cccc(O)c3)nc2c1 [Compound V1] | – | – | – | – | –
– | – | 61.9 ± 12 | – | CCOC(=O)c1ccc2[nH]c(-c3ccc(O)c(OC)c3)nc2c1 [Compound V3] | – | – | – | – | –
– | – | – | no SIRT2 inhibition | CCOC(=O)c1ccc2[nH]c(-c3ccc(OC)c(O)c3)nc2c1 [Compound V4] | – | – | – | – | –
11.2 ± 3.14 | 31.7 ± 1.27 | – | no SIRT2 inhibition | CCOC(=O)c1ccc2[nH]c(-c3cccc(OC)c3)nc2c1 [Compound V5] | 4.08 | 2.00 | 45.6 ± 2.18 | 1.44 | IC50 ([2]; Homo sapiens, H103): 22.8 ± 3.84 µM; cytotoxic effect in preliminary screening, H314 (H314 (OSCC) cell line): highly significant effects
– | – | 11.8 ± 11.4 | weakest inhibitory effect | CCOC(=O)c1ccc2[nH]c(-c3ccccc3OC)nc2c1 [Compound V6] | – | – | – | – | –
– | – | 25.5 ± 12.9 | – | CCOC(=O)c1ccc2[nH]c(-c3ccc(OC)c(OC)c3)nc2c1 [Compound V8] | – | – | – | – | –
16.6 ± 3.52 | 37.8 ± 1.81 | 39.3 ± 7.3 | – | CCOC(=O)c1ccc2[nH]c(-c3ccc(O)c(O)c3)nc2c1 [Compound V9] | 3.13 | – | 51.8 ± 5.65 | 1.37 | IC50 ([2]; Homo sapiens, H103): > 50 µM; cytotoxic effect in preliminary screening, H314 (H314 (OSCC) cell line): highly significant effects
